# In article PMC12250302, “Synthesis, Antimicrobial Activities, and Model of Action of Novel Tetralone Derivatives Containing Aminoguanidinium Moiety” (International Journal of Molecular Sciences, 2025):
# Like-named read-outs stand apart in the source and are kept apart here.
# Tests used:
# Test in all cases: MIC and MBC testing, broth microdilution
# [1] = tested on: K. pneumoniae ATCC 700603; format: cell-based, Klebsiella pneumoniae
# Source text: (§1) The minimum inhibitory concentrations (MICs) and minimum bactericidal concentrations (MBCs) of the synthesized compounds effective against ESKAPE strains, S. aureus clinical isolates, and MRSA were investigated by the broth dilution method. Levofloxacin is a broad-spectrum antibacterial agent that is widely used in the treatment of ESKAPE infections. Therefore, levofloxacin was selected as the positive control for the preliminary activity screening. DMSO (0.1%) was selected as the negative control.
# (§2) The minimum inhibitory concentration (MIC) of all synthesized compounds was tested by the broth microdilution method. In brief, compounds dissolved in DMSO were diluted twice continuously in a 96-well plate with MH broth. The ESKAPE pathogens (E. coli ATCC 25922, S. aureus ATCC 29213, K. pneumoniae ATCC 700603, A. baumannii ATCC 19606, P. aeruginosa ATCC 27853, and E. faecium ATCC 35667), clinical S. aureus isolates (LMY45, LMY46, LMY47, and LMY48) and methicillin-resistant Staphylococcus aureus (MRSA-1 and MRSA-2) were cultured in MH broth to logarithmic growth phase and then diluted to 1 × 10^6 CFU/mL in MH broth. Subsequently, the diluted bacterial solution was mixed with the diluted compound solution in a 96-well plate and incubated at 37 °C for a duration of 18 h. The MIC of the compounds was recorded as the lowest concentration at which no visible growth was observed. […] Each concentration was replicated thrice.
# [2] = tested on: E. faecium ATCC 35667; format: cell-based, Enterococcus faecium; conditions: E. faecium ATCC 35667; for MIC: 18 h
# Source text: as §1, §2
# [3] = tested on: E. coli ATCC 25922; format: cell-based, Escherichia coli
# Source text: as §1, §2
# [4] = tested on: A. baumannii ATCC 19606; format: cell-based, Acinetobacter baumannii
# Source text: as §1, §2
# [5] = tested on: clinical S. aureus isolate LMY48; format: cell-based, Staphylococcus aureus; conditions: LMY48; for MIC: 18 h
# Experimental: (§3) Furthermore, the MBC values of the compounds were detected.
# as §2, with “h.” for “h. The MIC of the compounds was recorded as the lowest concentration at which no visible growth was observed.”
# [6] = tested on: MRSA-1; format: cell-based, Staphylococcus aureus; conditions: MRSA-1; for MIC: 18 h
# Experimental: as §3
# as §2, with “h.” for “h. The MIC of the compounds was recorded as the lowest concentration at which no visible growth was observed.”
# [7] = tested on: clinical S. aureus isolate LMY45; format: cell-based, Staphylococcus aureus; conditions: LMY45; for MIC: 18 h
# Experimental: as §3
# as §2, with “h.” for “h. The MIC of the compounds was recorded as the lowest concentration at which no visible growth was observed.”
# [8] = tested on: clinical S. aureus isolate LMY46; format: cell-based, Staphylococcus aureus; conditions: LMY46; for MIC: 18 h
# Experimental: as §3
# as §2, with “h.” for “h. The MIC of the compounds was recorded as the lowest concentration at which no visible growth was observed.”
# [9] = tested on: clinical S. aureus isolate LMY47; format: cell-based, Staphylococcus aureus; conditions: LMY47; for MIC: 18 h
# Experimental: as §3
# as §2, with “h.” for “h. The MIC of the compounds was recorded as the lowest concentration at which no visible growth was observed.”
# [10] = tested on: MRSA-2; format: cell-based, Staphylococcus aureus; conditions: MRSA-2; for MIC: 18 h
# Experimental: as §3
# as §2, with “h.” for “h. The MIC of the compounds was recorded as the lowest concentration at which no visible growth was observed.”
# [11] = tested on: P. aeruginosa ATCC 27853; format: cell-based, Pseudomonas aeruginosa
# Source text: as §1, §2
# [12] = tested on: S. aureus ATCC 29213; format: cell-based, Staphylococcus aureus; conditions: S. aureus ATCC 29213; for MIC: 18 h
# Source text: as §1, §2
# [13] = Klebsiella pneumoniae, ATCC700603, 18 h, read-out: MIC
# [14] = Klebsiella pneumoniae, ATCC700603, read-out: MBC
# [15] = Enterococcus faecium, ATCC35667, read-out: MIC
# [16] = Enterococcus faecium, ATCC35667, read-out: MBC
# [17] = Escherichia coli, ATCC25922, 18 h, read-out: MIC
# [18] = Escherichia coli, ATCC25922, read-out: MBC
# [19] = Acinetobacter baumannii, ATCC19606, 18 h, read-out: MIC
# [20] = Acinetobacter baumannii, ATCC19606, read-out: MBC
# [21] = Staphylococcus aureus, read-out: MIC
# [22] = Staphylococcus aureus, read-out: MBC
# [23] = Pseudomonas aeruginosa, ATCC27853, 18 h, read-out: MIC
# [24] = Staphylococcus aureus, ATCC29213, read-out: MIC
# [25] = Staphylococcus aureus, ATCC29213, read-out: MBC
# [26] = Pseudomonas aeruginosa, ATCC27853, read-out: MBC
molecule,measurement,setting,value
"[H]/N=C(\N)NN=C1CCCc2cc(OCc3ccccc3Br)ccc21 [Compound 1Q, (E)-2-(6-((2-bromobenzyl)oxy)-3,4-dihydronaphthalen-1(2H)-ylidene)hydrazine-1-carboximidamide]",MIC,[1]; [13],32 µg/mL
same,MBC,[1]; [14],32 µg/mL
same,MIC,[2]; [15],2 µg/mL
same,MBC,[2]; [16],8 µg/mL
same,MIC,[3]; [17],4 µg/mL
same,MBC,[3]; [18],4 µg/mL
same,MIC,[4]; [19],8 µg/mL
same,MBC,[4]; [20],8 µg/mL
same,MIC,[5]; [21],2 µg/mL
same,MBC,[5]; [22],2 µg/mL
same,MIC,[6]; [21],1 µg/mL
same,MBC,[6]; [22],8 µg/mL
same,MIC,[7]; [21],2 µg/mL
same,MBC,[7]; [22],4 µg/mL
same,MIC,[8]; [21],2 µg/mL
same,MBC,[8]; [22],4 µg/mL
same,MIC,[9]; [21],≤ 1 µg/mL
same,MBC,[9]; [22],4 µg/mL
same,MIC,[10]; [21],2 µg/mL
same,MBC,[10]; [22],8 µg/mL
same,MIC,[11]; [23],> 32 µg/mL
same,MIC,[12]; [24],4 µg/mL
same,MBC,[12]; [25],8 µg/mL
"(E)-2-(6-((4-chlorobenzyl)oxy)-3,4-dihydro-1(2H)-naphthalenylidene)hydrazine-1-carboxamide [Compound 1N]",MBC,[1],32 µg/mL
same,MIC,[1]; 18 h,16 µg/mL
same,MBC,[2],8 µg/mL
same,MIC,[2],2 µg/mL
same,MBC,[3],8 µg/mL
same,MIC,[3]; 18 h,4 µg/mL
same,MBC,[4],16 µg/mL
same,MIC,[4]; 18 h,4 µg/mL
same,MBC,[5],16 µg/mL
same,MIC,[5],2 µg/mL
same,MBC,[6],4 µg/mL
same,MIC,[6],2 µg/mL
same,MBC,[7],4 µg/mL
same,MIC,[7],2 µg/mL
same,MBC,[8],8 µg/mL
same,MIC,[8],4 µg/mL
same,MBC,[9],2 µg/mL
same,MIC,[9],2 µg/mL
same,MBC,[10],4 µg/mL
same,MIC,[10],2 µg/mL
same,MBC,[11],32 µg/mL
same,MIC,[11]; 18 h,16 µg/mL
same,MBC,[12],4 µg/mL
same,MIC,[12],2 µg/mL
"CC(C)=CCC/C(C)=C/COc1ccc2c(c1)CCC/C2=N\NC(=N)N [Compound 2J, 2-((E)-6-(((E)-3,7-dimethylocta-2,6-dien-1-yl)oxy)-3,4-dihydronaphthalen-1(2H)-ylidene)hydrazine-1-carboximidamide]",MIC,[1]; [13],> 32 µg/mL
same,MIC,[2]; [15],2 µg/mL
same,MBC,[2]; [16],8 µg/mL
same,MIC,[3]; [17],8 µg/mL
same,MBC,[3]; [18],16 µg/mL
same,MIC,[4]; [19],8 µg/mL
same,MBC,[4]; [20],16 µg/mL
same,MIC,[5]; [21],4 µg/mL
same,MBC,[5]; [22],8 µg/mL
same,MIC,[6]; [21],2 µg/mL
same,MBC,[6]; [22],16 µg/mL
same,MIC,[7]; [21],4 µg/mL
same,MBC,[7]; [22],16 µg/mL
same,MIC,[8]; [21],2 µg/mL
same,MBC,[8]; [22],> 32 µg/mL
same,MIC,[9]; [21],2 µg/mL
same,MBC,[9]; [22],16 µg/mL
same,MIC,[10]; [21],2 µg/mL
same,MBC,[10]; [22],16 µg/mL
same,MIC,[11]; [23],32 µg/mL
same,MBC,[11]; [26],32 µg/mL
same,MIC,[12]; [24],4 µg/mL
same,MBC,[12]; [25],8 µg/mL
"[H]/N=C(\N)NN=C1CCCc2cc(OCc3cccc(C(F)(F)F)c3)ccc21 [Compound 1I, (E)-2-(6-((3-(trifluoromethyl)benzyl)oxy)-3,4-dihydronaphthalen-1(2H)-ylidene)hydrazine-1-carboximidamide]",MIC,[1]; [13],32 µg/mL
same,MBC,[1]; [14],32 µg/mL
same,MIC,[2]; [15],4 µg/mL
same,MBC,[2]; [16],8 µg/mL
same,MIC,[3]; [17],4 µg/mL
same,MBC,[3]; [18],4 µg/mL
same,MIC,[4]; [19],8 µg/mL
same,MBC,[4]; [20],8 µg/mL
same,MIC,[5]; [21],2 µg/mL
same,MBC,[5]; [22],2 µg/mL
same,MIC,[6]; [21],2 µg/mL
same,MBC,[6]; [22],16 µg/mL
same,MIC,[7]; [21],1 µg/mL
same,MBC,[7]; [22],4 µg/mL
same,MIC,[8]; [21],2 µg/mL
same,MBC,[8]; [22],4 µg/mL
same,MIC,[9]; [21],2 µg/mL
same,MBC,[9]; [22],2 µg/mL
same,MIC,[10]; [21],2 µg/mL
same,MBC,[10]; [22],4 µg/mL
same,MIC,[11]; [23],32 µg/mL
same,MBC,[11]; [26],32 µg/mL
same,MIC,[12]; [24],2 µg/mL
same,MBC,[12]; [25],16 µg/mL
"[H]/N=C(\N)NN=C1CCCc2cc(OCCCCC)ccc21 [Compound 2B, (E)-2-(6-(pentyloxy)-3,4-dihydronaphthalen-1(2H)-ylidene)hydrazine-1-carboximidamide]",MIC,[1]; [13],8 µg/mL
same,MBC,[1]; [14],8 µg/mL
same,MIC,[2]; [15],4 µg/mL
same,MBC,[2]; [16],16 µg/mL
same,MIC,[3]; [17],4 µg/mL
same,MBC,[3]; [18],8 µg/mL
same,MIC,[4]; [19],8 µg/mL
same,MBC,[4]; [20],8 µg/mL
same,MIC,[5]; [21],2 µg/mL
same,MBC,[5]; [22],2 µg/mL
same,MIC,[6]; [21],32 µg/mL
same,MBC,[6]; [22],32 µg/mL
same,MIC,[7]; [21],8 µg/mL
same,MBC,[7]; [22],16 µg/mL
same,MIC,[8]; [21],8 µg/mL
same,MBC,[8]; [22],16 µg/mL
same,MIC,[9]; [21],4 µg/mL
same,MBC,[9]; [22],8 µg/mL
same,MIC,[10]; [21],4 µg/mL
same,MBC,[10]; [22],4 µg/mL
same,MIC,[11]; [23],16 µg/mL
same,MBC,[11]; [26],32 µg/mL
same,MIC,[12]; [24],1 µg/mL
same,MBC,[12]; [25],8 µg/mL
"[H]/N=C(\N)NN=C1CCCc2cc(OCc3ccc(F)cc3)ccc21 [Compound 1C, (E)-2-(6-((4-fluorobenzyl)oxy)-3,4-dihydronaphthalen-1(2H)-ylidene)hydrazine-1-carboximidamide]",MIC,[1]; [13],16 µg/mL
same,MBC,[1]; [14],16 µg/mL
same,MIC,[2]; [15],4 µg/mL
same,MBC,[2]; [16],16 µg/mL
same,MIC,[3]; [17],8 µg/mL
same,MBC,[3]; [18],8 µg/mL
same,MIC,[4]; [19],8 µg/mL
same,MBC,[4]; [20],8 µg/mL
same,MIC,[5]; [21],4 µg/mL
same,MBC,[5]; [22],4 µg/mL
same,MIC,[6]; [21],2 µg/mL
same,MBC,[6]; [22],16 µg/mL
same,MIC,[7]; [21],2 µg/mL
same,MBC,[7]; [22],4 µg/mL
same,MIC,[8]; [21],2 µg/mL
same,MBC,[8]; [22],8 µg/mL
same,MIC,[9]; [21],2 µg/mL
same,MBC,[9]; [22],8 µg/mL
same,MIC,[10]; [21],4 µg/mL
same,MBC,[10]; [22],8 µg/mL
same,MIC,[11]; [23],32 µg/mL
same,MBC,[11]; [26],32 µg/mL
same,MIC,[12]; [24],4 µg/mL
same,MBC,[12]; [25],16 µg/mL
"[H]/N=C(\N)NN=C1CCCc2cc(OCCCCCCCC)ccc21 [Compound 2E, (E)-2-(6-(octyloxy)-3,4-dihydronaphthalen-1(2H)-ylidene)hydrazine-1-carboximidamide]",MIC,[1]; [13],> 32 µg/mL
same,MIC,[2]; [15],2 µg/mL
same,MBC,[2]; [16],4 µg/mL
same,MIC,[3]; [17],4 µg/mL
same,MBC,[3]; [18],16 µg/mL
same,MIC,[4]; [19],8 µg/mL
same,MBC,[4]; [20],32 µg/mL
same,MIC,[5]; [21],1 µg/mL
same,MBC,[5]; [22],2 µg/mL
same,MIC,[6]; [21],1 µg/mL
same,MBC,[6]; [22],8 µg/mL
same,MIC,[7]; [21],1 µg/mL
same,MBC,[7]; [22],4 µg/mL
same,MIC,[8]; [21],1 µg/mL
same,MBC,[8]; [22],4 µg/mL
same,MIC,[9]; [21],2 µg/mL
same,MBC,[9]; [22],4 µg/mL
same,MIC,[10]; [21],1 µg/mL
same,MBC,[10]; [22],2 µg/mL
same,MIC,[11]; [23],32 µg/mL
same,MBC,[11]; [26],> 32 µg/mL
same,MIC,[12]; [24],2 µg/mL
same,MBC,[12]; [25],2 µg/mL
